We go through 1 molecule from article PMC6521598, “Identification of GLPG/ABBV-2737, a Novel Class of Corrector, Which Exerts Functional Synergy With Other CFTR Modulators” (Frontiers in Pharmacology, 2019).

The structures appear in SMILES notation.

On the set-up of series [1]: method as in Brearley et al., 2017. To be noted: healthy volunteers; ref Brearley et al., 2017; cited from earlier work.
Series [2] addresses F508del CFTR (Homo sapiens, UniProt P13569, DEL508-508). The series can be described thus: CSE-HRP assay (cell surface expression horseradish peroxidase assay). The series is classed as cell-based. The arrangement: University of North Carolina; host or cells: primary human bronchial epithelial cells, F508del/F508del donors. To be noted: 24 h treatment; for % F508del PM Expression vs control: VX809 rescue = 100%. Here is the method: CFBE41o^- TetON cells expressing HRP tagged F508del-CFTR ([Veit et al., 2012]) were seeded at a density of 2000 cells per well in white 384-well plates (Greiner). Medium containing 500 ng/ml doxycycline was used to induce expression of the F508del-CFTR–HRP construct. After 3 days, cells were treated with corrector and/or potentiator compounds and transferred to an incubator at 33°C. On day 4, cells were washed five times with PBS containing Ca^2+ and Mg^2+ using a Bio-Tek plate washer and incubated with a chemiluminescent HRP substrate (SuperSignal West Pico Chemiluminescent Substrate, Thermo Scientific) for 15 min. Chemiluminescence was measured using an Envision plate reader (Perkin Elmer).
To discover novel correctors several high throughput screening campaigns were performed using cell based assays measuring plasma membrane expression of the F508del CFTR protein. The CSE-HRP system used CFBE41O-cells, a lung epithelial cell line, stably transfected with F508del CFTR tagged with HRP in the fourth extracellular loop ([Veit et al., 2014]). The CSE-MEM system, used U2OS cells, an osteosarcoma epithelial cell line, stably transfected with F508del CFTR tagged with a Pro-link moiety at the C-terminal and a plasma membrane located EA (enzyme acceptor) moiety. The latter cells were created by DiscoverX and the assay further optimized to allow robust evaluation in a high throughput manner.
For screening, cells were pre-incubated with compound for 24 h prior to read-out to allow sufficient time for de novo synthesis, and cellular trafficking of F508del-CFTR to reach steady state levels at the plasma membrane. A diverse set of 105,000 small molecules was screened in both cell assays in presence and absence of a fixed concentration (3 μM) of VX809. For the identification of suitable starting points we primarily focused on hits that increased the F508del CFTR surface expression under all conditions as exemplified by compound HIT1.

Sequence of F508del CFTR (P13569 with tags, fused parts or gaps DEL508-508): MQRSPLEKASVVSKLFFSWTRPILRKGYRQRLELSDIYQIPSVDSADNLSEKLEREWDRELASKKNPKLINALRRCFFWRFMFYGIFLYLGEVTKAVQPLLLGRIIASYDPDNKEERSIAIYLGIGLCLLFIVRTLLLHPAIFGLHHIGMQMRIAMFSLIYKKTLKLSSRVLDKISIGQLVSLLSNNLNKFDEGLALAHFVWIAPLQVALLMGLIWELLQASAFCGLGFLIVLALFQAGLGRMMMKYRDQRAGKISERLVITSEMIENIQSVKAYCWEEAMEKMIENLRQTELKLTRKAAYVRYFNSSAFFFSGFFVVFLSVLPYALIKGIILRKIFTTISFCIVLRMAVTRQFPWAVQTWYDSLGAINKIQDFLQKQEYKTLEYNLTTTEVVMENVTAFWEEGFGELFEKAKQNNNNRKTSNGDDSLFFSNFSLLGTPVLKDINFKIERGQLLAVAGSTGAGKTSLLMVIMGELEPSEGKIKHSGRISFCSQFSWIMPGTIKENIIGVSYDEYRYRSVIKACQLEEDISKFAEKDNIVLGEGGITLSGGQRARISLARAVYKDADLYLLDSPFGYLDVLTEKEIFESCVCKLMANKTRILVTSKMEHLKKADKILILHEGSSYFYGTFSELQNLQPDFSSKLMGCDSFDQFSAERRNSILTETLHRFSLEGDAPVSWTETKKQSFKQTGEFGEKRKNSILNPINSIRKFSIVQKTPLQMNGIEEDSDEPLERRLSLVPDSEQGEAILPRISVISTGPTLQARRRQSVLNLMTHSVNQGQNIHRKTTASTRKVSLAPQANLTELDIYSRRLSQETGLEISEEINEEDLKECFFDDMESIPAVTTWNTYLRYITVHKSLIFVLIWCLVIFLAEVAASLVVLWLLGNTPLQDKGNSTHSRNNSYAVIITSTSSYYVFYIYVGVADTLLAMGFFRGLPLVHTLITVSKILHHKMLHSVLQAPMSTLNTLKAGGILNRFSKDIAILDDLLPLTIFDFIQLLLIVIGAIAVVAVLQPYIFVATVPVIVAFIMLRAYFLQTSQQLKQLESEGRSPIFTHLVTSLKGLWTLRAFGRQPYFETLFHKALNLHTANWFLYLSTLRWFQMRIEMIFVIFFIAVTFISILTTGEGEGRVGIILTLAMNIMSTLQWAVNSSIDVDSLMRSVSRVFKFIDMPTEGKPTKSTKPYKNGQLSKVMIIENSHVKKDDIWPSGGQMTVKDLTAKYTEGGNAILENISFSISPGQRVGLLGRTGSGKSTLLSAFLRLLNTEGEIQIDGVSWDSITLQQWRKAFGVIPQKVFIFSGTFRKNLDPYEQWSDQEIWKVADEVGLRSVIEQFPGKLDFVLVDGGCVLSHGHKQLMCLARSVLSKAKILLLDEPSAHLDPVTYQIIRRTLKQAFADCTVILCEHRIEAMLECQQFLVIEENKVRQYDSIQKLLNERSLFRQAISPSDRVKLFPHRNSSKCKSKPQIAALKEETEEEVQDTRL

For orientation: EC50 means the concentration needed to bring the measured effect to its halfway point. As for `COC1CCN(C2CCN(c3cc(C(=O)NS(=O)(=O)N(C)C)nc4c3c(C3CCC3)nn4-c3ccc(F)cc3)CC2)CC1` [GLPG2737], the “observed exposure in humans” value in series [1] is reported as “dose linear”. Besides, in series [2] (+ 3 μM VX809), the “% F508del PM Expression vs control” value is reported as 416%. In series [2] (no co-corrector), the EC50 was 809 nM and the “% F508del PM Expression vs control” value amounted to 264%.
